Test results reported in publication PMC12040169 (PLOS Biology, 2025).

Experiment: in vitro
Conditions: human, hela cells, % viability

Question: Which viability at 28.5 h, 10 µM does the source give for CCc1cccc2c1Sc1ccccc1CC2N1CCN(C)CC1 (centres unmarked) [CBK026248G] here?
Answer: 103%

Question: For O=C(Nc1ccc(O)c(-c2nc3ccccc3o2)c1)c1ccc(-c2ccc([N+](=O)[O-])cc2)o1 [CBK263439], which viability at 28.5 h, 10 µM is on record?
Answer: 96.4%

Question: For CCC(C(=O)Nc1nccs1)N(C)Cc1n[nH]c2c1CCC2 (centres unmarked) [CBK307685], which viability at 28.5 h, 10 µM is on record?
Answer: 99%

Question: Which viability at 28.5 h, 10 µM does the source give for COCCC1CN(c2nc(N(C)C)nc3c2CCN(C(C)=O)C3)CCO1 (centres unmarked) [CBK307464] here?
Answer: 82.2%

Question: With CC(C)(C)C1=CC2=NC3(CCC3)C3C[C@@H](O)[C@@H](O)[C@]3(COCc3ccccc3)N2O1 (some centres unmarked) [CBK303260] as the compound, how does the viability at 28.5 h, 10 µM read?
Answer: 99.6%

Question: Which viability at 28.5 h, 10 µM does the source give for N=C1OC2CSCC2N1C(=O)Cc1ccc(F)cc1 (centres unmarked) [CBK284515] here?
Answer: 103%

Question: With CC(C)(C)c1cc(CCC(=O)N2CCN(C(=O)CCc3cc(C(C)(C)C)c(O)c(C(C)(C)C)c3)CC2)cc(C(C)(C)C)c1O [CBK261963] as the compound, how does the viability at 28.5 h, 10 µM read?
Answer: 91.1%

Question: Which viability at 28.5 h, 10 µM does the source give for FC(F)(F)c1ccc(OCCCc2ccncc2)nc1 [CBK115791] here?
Answer: 101%

Question: For CN(C)CCNC(=O)c1ccc2[nH]ccc2c1 [CBK149062], which viability at 28.5 h, 10 µM is on record?
Answer: 112%

Question: For O=C(CO)N1CC2(CCN(Cc3cccc4cccnc34)CC2)c2ccccc21 [CBK137004], which viability at 28.5 h, 10 µM is on record?
Answer: 104%

Question: With Cc1nc2n(c(=O)c1CCSc1ccccc1C(=O)O)CCCC2 [CBK286818] as the compound, how does the viability at 28.5 h, 10 µM read?
Answer: 102%

Question: Which viability at 28.5 h, 10 µM does the source give for O=C(O)c1cccc(NC(=O)c2c(C(=O)O)cccc2[N+](=O)[O-])c1 [CBK261096] here?
Answer: 99.6%

Question: With O=c1c2ccsc2ncn1Cc1nnc(-c2ccc(Br)o2)o1 [CBK295642] as the compound, how does the viability at 28.5 h, 10 µM read?
Answer: 88.7%

Question: Which viability at 28.5 h, 10 µM does the source give for CSc1nc(N)n(-c2cc(C(F)(F)F)cc(C)n2)n1 [CBK005941] here?
Answer: 89.9%

Question: Which viability at 28.5 h, 10 µM does the source give for CNC(=O)c1cccc(NC(=O)c2ccc(C)nc2N2CCOCC2)c1 [CBK106223] here?
Answer: 95.1%

Question: Which viability at 28.5 h, 10 µM does the source give for Cc1cccc(CCNC(=O)N2CCC(Cc3cnn(C)c3)C2)c1 (centres unmarked) [CBK305137] here?
Answer: 110%

Question: Which viability at 28.5 h, 10 µM does the source give for Cc1cc(C)cc(S(=O)(=O)c2ccc3ccnc(N4CCCNCC4)c3c2)c1 [CBK036413C] here?
Answer: 87.1%

Question: Which viability at 28.5 h, 10 µM does the source give for COc1ccc(CCNC(=O)[C@@H]2Cc3c([nH]c4ccccc34)[C@]3(CCN(Cc4ccccc4)C3)N2)cc1OC [CBK062620] here?
Answer: 114%

Question: For CC1NCCc2c1sc1ccccc21 (centres unmarked) [CBK026032C], which viability at 28.5 h, 10 µM is on record?
Answer: 100%

Question: Which viability at 28.5 h, 10 µM does the source give for COc1ncccc1-c1csc(C2CN3CCCC3CO2)n1 (centres unmarked) [CBK304110] here?
Answer: 83.5%

Question: For O=C(Nc1ccc(N2CCOCC2)c2nonc12)c1cc(-c2cccnc2)nc2ccc(Cl)cc12 [CBK267724], which viability at 28.5 h, 10 µM is on record?
Answer: 89.8%

Question: Which viability at 28.5 h, 10 µM does the source give for c1cn2cnnc2c(N2CCOC(c3ccsc3)C2)n1 (centres unmarked) [CBK306379] here?
Answer: 88.8%

Question: With O=C(CSc1nc2ccccc2c2nc3ccccc3n12)Nc1cccc(Cl)c1 [CBK267872] as the compound, how does the viability at 28.5 h, 10 µM read?
Answer: 94.2%

Question: For Cc1ccc(CN(CCCN(C)C)Cc2nccn2C)o1 [CBK282481], which viability at 28.5 h, 10 µM is on record?
Answer: 105%

Question: For Cc1nc(NC(=O)Cc2c(C)nn(CC(C)C)c2C)sc1-c1n[nH]c(=S)n1C [CBK296691], which viability at 28.5 h, 10 µM is on record?
Answer: 88.6%

Question: For O=C(CSc1nnnn1CC1CCCO1)N1CC=C(c2ccccc2)CC1 (centres unmarked) [CBK295160], which viability at 28.5 h, 10 µM is on record?
Answer: 82%

Question: Which viability at 28.5 h, 10 µM does the source give for COc1ccc(CNC(=O)c2cc(S(=O)(=O)N(C)C)cs2)cc1 [CBK307579] here?
Answer: 87.1%

Question: With O=C(Cn1cnc2c(cnn2-c2ccc(F)cc2)c1=O)Nc1ccc(F)cc1F [CBK287537] as the compound, how does the viability at 28.5 h, 10 µM read?
Answer: 89.3%

Question: For O=C(O)C1C2C=CC(O2)C1C(=O)NCc1ccccn1 (centres unmarked) [CBK058859], which viability at 28.5 h, 10 µM is on record?
Answer: 99.1%

Question: Which viability at 28.5 h, 10 µM does the source give for CC(C)(C)C(=O)N[C@H]1C[C@@H](Cc2cc(CN3CCOCC3)on2)C1(C)C [CBK289247] here?
Answer: 96.2%

Question: With CC(=O)c1ccc(-c2nccnc2N[C@@H]2CCN(Cc3ccccc3)C2)s1 [CBK036981] as the compound, how does the viability at 28.5 h, 10 µM read?
Answer: 104%

Question: Which viability at 28.5 h, 10 µM does the source give for CC(C)(C)OC(=O)Nc1cc(Cl)ccc1C(=O)O [CBK200024] here?
Answer: 103%

Question: Which viability at 28.5 h, 10 µM does the source give for Nc1ccc(Sc2nccnc2N2CCCC2)cc1 [CBK089520] here?
Answer: 94.4%

Question: For Cc1ccc(NCC2CCN(CC(=O)Nc3cc(C)on3)C2)nc1 (centres unmarked) [CBK306337], which viability at 28.5 h, 10 µM is on record?
Answer: 95.5%

Question: With CCOC(=O)CN1CCN(C(=O)Nc2ccccc2OC(F)(F)F)CC1 [CBK043656] as the compound, how does the viability at 28.5 h, 10 µM read?
Answer: 97%
